The source of these data is ChEMBL document CHEMBL1154401, “Therapeutic effect of nisin Z on subclinical mastitis in lactating cows” (Antimicrob Agents Chemother, 2007).

Bounds are passed on as bounds.

The subject of data set [1] is Bos taurus. As to the kind of experiment: Toxicity in intramammary dosed Holstein bovine assessed as increase in N-acetyl-beta-D-[…] in milk dosed after morning milking by irritancy test. In kind it is organism-based. The conditions noted are these: cattle, in vivo, other.
In data set [2] the test system is Bos taurus. Kind of data set: Toxicity in Holstein bovine assessed as visible local reaction with swollen and tender mammary gland at 5X10'6 IU, intramammary dosed in right forequarter of mammary gland after morning milking by irritancy test. In kind it is organism-based. Conditions: cattle, in vivo, other.
Data set [3] relates to Bos taurus. Kind of data set: Toxicity in Holstein bovine assessed as decreased milk yeild with clots and flakes in milk at 5X10'6 IU, intramammary dosed in right forequarter of mammary gland after morning milking by irritancy test. Type of data set: organism-based. Conditions: cattle, in vivo, other.
Data set [4] is described as follows: Drug level in milk of lactating bovine subclinical mastitis model at 2.5X10'6 IU after 48 hrs. Conditions: cattle. In kind it is ADME, Bos taurus.
The nature of data set [5]: Drug level in milk of lactating bovine clinical mastitis model at 2.5X10'6 IU, intramammary dosed twice daily for 3 days measured after 12 hrs. Type of data set: ADME, organism-based, Bos taurus. The conditions noted are these: cattle, in vivo, other.
In data set [6] the test system is Bos taurus. Kind of data set: Toxicity in Holstein bovine assessed as decreased milk yeild at 2.5X10'6 IU, intramammary dosed in right hindquarter of mammary gland after morning milking by irritancy test. Type of data set: organism-based. Conditions: cattle, in vivo, other.
The nature of data set [7]: Drug level in milk of lactating Holstein bovine mastitis model at 2.5X10'6 IU, intramammary administered once daily for 3 days measured after 24 hrs. In kind it is ADME, Bos taurus. The conditions noted are these: cattle, other.
Data set [8] is described as follows: Drug level in milk of lactating bovine subclinical mastitis model at 2.5X10'6 IU after 24 hrs. In kind it is ADME, Bos taurus. The conditions noted are these: cattle.
Data set [9] is described as follows: Drug level in milk of lactating Holstein bovine mastitis model at 2.5X10'6 IU, intramammary administered once daily for 3 days measured after 48 hrs. In kind it is ADME, Bos taurus. The conditions noted are these: cattle, other.
Data set [10] relates to Bos taurus. Kind of data set: Toxicity in Holstein bovine assessed as decreased milk yeild at 1.25X10'6 IU, intramammary dosed in left hindquarter of mammary gland of mammary gland after morning milking by irritancy test. In kind it is organism-based. The conditions noted are these: cattle, in vivo, other.
The subject of data set [11] is Bos taurus. As to the kind of experiment: Toxicity in Holstein bovine assessed as visible local reaction at 5X10'6 IU, intramammary dosed in right forequarter of mammary gland after morning milking after 24 hrs by irritancy test. Type of data set: organism-based. Conditions: cattle, in vivo, other.
The subject of data set [12] is Bos taurus. As to the kind of experiment: Toxicity in Holstein bovine assessed as visible local reaction at 2.5X10'6 IU, intramammary dosed in right hindquarter of mammary gland after morning milking by irritancy test. Conditions: cattle, in vivo, other. Type of data set: organism-based.
The test system of data set [13] is Bos taurus. As to the kind of experiment: Toxicity in intramammary dosed Holstein bovine assessed as increase in somatic cell count in dosed after morning milking by irritancy test. Type of data set: organism-based. The conditions noted are these: cattle, other.
For data set [14], the system named is Bos taurus. As to the kind of experiment: Toxicity in Holstein bovine assessed as visible local reaction at 1.25X10'6 IU, intramammary dosed in left hindquarter of mammary gland after morning milking by irritancy test. In kind it is organism-based. Conditions: cattle, in vivo, other.
Data set [15] deals with Staphylococcus aureus. As to the kind of experiment: Antibacterial activity against Staphylococcus aureus isolated from milk of Holstein bovine subclinical mastitis model after 2 hrs. In kind it is functional.
Data set [16] relates to Bos taurus. Kind of data set: Antiinflammatory activity in lactating Holstein bovine subclinical mastitis model assessed as reduction in N-acetyl-beta-D-[…] activity at 2.5X10'6 IU, intramammary dosed after morning milking measured after 2 weeks. In kind it is functional.
Data set [17] has as its system Staphylococcus aureus. As to the kind of experiment: Antibacterial activity against Staphylococcus aureus in lactating Holstein bovine subclinical mastitis model assessed as reduction in intramammary infections at 2.5X10'6 IU, intramammary dosed after morning milking relative to control. Type of data set: functional. Details: scale not given: the % may be the effect or the level left.

Data set [18] concerns Bos taurus. Kind of data set: Antiinflammatory activity in lactating Holstein bovine subclinical mastitis model assessed as reduction in number of mammary gland quarters with somatic cell count of >=5X10'5/ml at 2.5X10'6 IU, intramammary dosed after morning milking measured after 1 week. Type of data set: functional. On the set-up: scale not given: the % may be the effect or the level left.

Data set [19] has as its system Bos taurus. Kind of data set: Antiinflammatory activity in lactating Holstein bovine subclinical mastitis model assessed as reduction in number of mammary gland quarters with somatic cell count of >=5X10'5/ml at 2.5X10'6 IU, intramammary dosed after morning milking measured after 2 weeks. In kind it is functional. Details: scale not given: the % may be the effect or the level left.

For the next data set, the system named is Streptococcus agalactiae. Kind of data set: Antibacterial activity against Streptococcus agalactiae in lactating Holstein bovine subclinical mastitis model assessed as reduction in intramammary infections at 2.5X10'6 IU, intramammary dosed after morning milking relative to control. Details: scale not given: the % may be the effect or the level left. Type of data set: functional.

The next data set has as its system Staphylococcus. Kind of data set: Antibacterial activity against coagulase-negative Staphylococcus infected in lactating Holstein bovine subclinical mastitis model assessed as reduction in intramammary infections at 2.5X10'6 IU, intramammary dosed after morning milking relative to control. Type of data set: functional. On the set-up: scale not given: the % may be the effect or the level left.

In data set [20] the test system is Bos taurus. As to the kind of experiment: Antiinflammatory activity in lactating Holstein bovine subclinical mastitis model assessed as reduction in N-acetyl-beta-D-[…] activity at 2.5X10'6 IU, intramammary dosed after morning milking measured after 1 week. In kind it is functional.
Data set [21] deals with Staphylococcus aureus. As to the kind of experiment: Sensitivity of Staphylococcus aureus isolated from lactating Holstein bovine subclinical mastitis model at 5 ug/disk after 20 hrs. In kind it is functional. Conditions: read-out: IZ.
The test system of data set [22] is Staphylococcus aureus. As to the kind of experiment: Resistance of Staphylococcus aureus isolated from lactating Holstein bovine subclinical mastitis model at 5 ug/disk after 20 hrs. In kind it is functional.
The test system of data set [23] is Staphylococcus aureus. As to the kind of experiment: Sensitivity of Staphylococcus aureus isolated from lactating Holstein bovine subclinical mastitis model at 10 ug/disk after 20 hrs. The conditions noted are these: read-out: IZ. Type of data set: functional.
Data set [24] concerns Staphylococcus aureus. As to the kind of experiment: Resistance of Staphylococcus aureus isolated from lactating Holstein bovine subclinical mastitis model at 10 ug/disk after 20 hrs. Type of data set: functional.
The subject of data set [25] is Staphylococcus aureus. Kind of data set: Sensitivity of Staphylococcus aureus isolated from lactating Holstein bovine subclinical mastitis model at 30 ug/disk after 20 hrs. Type of data set: functional. Conditions: read-out: IZ.
The subject of data set [26] is Staphylococcus aureus. Kind of data set: Resistance of Staphylococcus aureus isolated from lactating Holstein bovine subclinical mastitis model at 30 ug/disk after 20 hrs. Type of data set: functional.
Setting [27] is: Staphylococcus aureus, 20 h, read-out: IZ.

For the compound `C=C(NC(=O)[C@@H](NC(=O)[C@H](Cc1c[nH]cn1)NC(=O)[C@@H](NC(=O)[C@H](CO)NC(=O)[C@@H]1CS[C@@H](C)[C@H]2NC(=O)[C@H](C)NC(=O)[C@H](NC(=O)[C@H](CCCCN)NC(=O)[C@H](CCSC)NC(=O)[C@H](CC(N)=O)NC(=O)[C@@H]3CS[C@@H](C)[C@@H](NC(=O)[C@H](CCCCN)NC(=O)[C@@H]4CS[C@@H](C)[C@@H](NC(=O)[C@@H]5CSC[C@@H](NC(=O)/C(=C/C)NC(=O)[C@@H](N)[C@@H](C)CC)C(=O)N[C@@H]([C@@H](C)CC)C(=O)NC(=C)C(=O)N[C@@H](CC(C)C)C(=O)N5)C(=O)N5CCC[C@H]5C(=O)NCC(=O)N4)C(=O)NCC(=O)N[C@@H](C)C(=O)N[C@@H](CC(C)C)C(=O)N[C@@H](CCSC)C(=O)NCC(=O)N3)[C@H](C)SC[C@H](NC2=O)C(=O)N[C@@H](CC(N)=O)C(=O)N1)[C@@H](C)CC)C(C)C)C(=O)N[C@@H](CCCCN)C(=O)O`, the Activity entry is given as “Dose-dependent effect” in the data set with Bos taurus [1]; “Toxic” in the data set on Bos taurus [2]; “Toxic” in the data set on Bos taurus [3]; “Non-toxic” in the data set on Bos taurus [6]; 83 IU/ml in [8]; “Non-toxic” in the data set with Bos taurus [10]. Also, the Activity result in the data set on Bos taurus [11] is recorded as “Toxic”; in the data set on Bos taurus [12], “Non-toxic”; with Bos taurus [13] it was “Dose-dependent effect”; in the data set with Bos taurus [14], “Non-toxic”. For the same compound, the Drug uptake in data set [4] is 15 IU/ml; in data set [5], 4.5 IU/ml; in data set [7], 75.8 IU/ml; in [9], 5.7 IU/ml.
In the data set on Staphylococcus aureus [15], `C=C(NC(=O)[C@@H](NC(=O)[C@H](Cc1cnc[nH]1)NC(=O)[C@@H](NC(=O)[C@H](CO)NC(=O)[C@@H]1CS[C@@H](C)[C@H]2NC(=O)[C@H](C)NC(=O)[C@H](NC(=O)[C@H](CCCCN)NC(=O)[C@H](CCSC)NC(=O)[C@H](CC(N)=O)NC(=O)[C@@H]3CS[C@@H](C)[C@@H](NC(=O)[C@H](CCCCN)NC(=O)[C@@H]4CS[C@@H](C)[C@@H](NC(=O)[C@@H]5CSC[C@@H](NC(=O)/C(=C/C)NC(=O)[C@@H](N)[C@@H](C)CC)C(=O)N[C@@H]([C@@H](C)CC)C(=O)NC(=C)C(=O)N[C@@H](CC(C)C)C(=O)N5)C(=O)N5CCC[C@H]5C(=O)NCC(=O)N4)C(=O)NCC(=O)N[C@@H](C)C(=O)N[C@@H](CC(C)C)C(=O)N[C@@H](CCSC)C(=O)NCC(=O)N3)[C@H](C)SC[C@H](NC2=O)C(=O)N[C@@H](CC(N)=O)C(=O)N1)[C@@H](C)CC)C(C)C)C(=O)N[C@@H](CCCCN)C(=O)O` displayed an MIC of 75.5 IU/ml. Moreover, the Activity in the data set on Bos taurus [16] is reported as 28.9 U/ml; with Staphylococcus aureus [17], 50%; in the data set with Bos taurus [18], 58.7%; in the data set on Bos taurus [19], 70.5%; in the data set on Streptococcus agalactiae, 90.9%; in the data set on Staphylococcus it was 58.8%. In the data set with Bos taurus [20], the Activity is recorded as 26.2 U/ml.
For `CCn1cc(C(=O)O)c(=O)c2cc(F)c(N3CCNCC3)cc21` [NORFLOXACIN], the values for the zone of inhibition at 5 µg/disc in the data set on Staphylococcus aureus [21] and in the data set on Staphylococcus aureus [22] (setting [27]) were at least 17 mm and at most 12 mm, respectively. The compound further returned an Activity in the data set on Staphylococcus aureus [22] of 75%.
Consider `CC1(C)S[C@@H]2[C@H](NC(=O)Cc3ccccc3)C(=O)N2[C@H]1C(=O)O` [PENICILLIN G], for which the zone of inhibition at 10 µg/disc in the data set with Staphylococcus aureus [23] was at least 29 mm; with Staphylococcus aureus [24] (setting [27]) it was at most 28 mm. Further, the Activity with Staphylococcus aureus [24] was 80%.
Consider `Cc1nnc(SCC2=C(C(=O)O)N3C(=O)[C@@H](NC(=O)Cn4cnnn4)[C@H]3SC2)s1` [CEFAZOLIN], for which the results for the zone of inhibition at 30 µg/disc in the data set on Staphylococcus aureus [25] and in the data set on Staphylococcus aureus [26] (setting [27]) were at least 18 mm and at most 14 mm, respectively. The same compound had an Activity with Staphylococcus aureus [26] of 5%.
Regarding GENTAMICIN, the Activity with Staphylococcus aureus [24] amounted to 45%.
